Experiments:
Format in all cases: cell-based
[1] = system: HeLa cells; experiment: γ-H2AX immunostaining (DNA damage); settings: 3.0 μM
Protocol: CTR-17 caused neither impediment of DNA replication nor DNA damage. […] The detection of EdU incorporated into DNA was carried out by fluorescence microscopy. […] Etoposide (50.0 μM) was used as a positive control.

[2] = system: HEK293T; experiment: Immunofluorescent staining: centrosomes and chromosome segregation; settings: 3 μM
Protocol: Cells on coverslips placed on the bottom of 35 mm tissue culture plates or 6-well clustered dishes were treated for 12-24 hours with the CTR compounds to be tested. Subsequently, the cells were fixed with 100% methanol for 15 minutes and washed with 1×PBS three times. Cells were then “blocked” with 3% BSA or 1% (v/v) FBS plus 1×PBST (1×PBS buffer containing 0.1% (v/v) Triton X-100 or 0.2% Tween 20), and incubated overnight at 4° C. with primary antibodies, with gentle agitation. Unbound primary antibodies were washed off with PBST, and a secondary antibody was added for 1 hour in the dark. Secondary antibodies were conjugated to Alexa 488 or 568. DNA was counterstained with DRAQ5 or DAPI. Subsequently, coverslips were washed three times with 1×PBST for 10 minutes each, followed by mounting them onto slides with 90% glycerol in 1×PBS. Each slide was visualized with a Carl Zeiss 510 Meta laser scanning microscope or an Axioscope. Image analysis was done with an LSM image examiner equipped with the microscopes (Carl Zeiss, Toronto, ON, Canada).
The cancer-specific increase of mitotic cells in response to CTR-17 was correlated with the accumulation of cells with monopolar centrosomes and abnormal chromosome alignment/segregation (FIG. 11, Table 5). Cells were either sham-treated or treated with 3.0 μM CTR-17 for 12 hours or 24 hours, followed by analyses of cell cycle progression, centrosome abnormalities, and chromosome alignment/segregation. […] The mitotic index was determined by fluorescence microscopic analysis of at least 200 cells for each cell type, and data was expressed as percentage mean±S.E.M. of at least two independent experiments.

[3] = system: RPMI-8226-BR; experiment: Antiproliferation, bortezomib-resistant cells; settings: RPMI-8226-BR (bortezomib-resistant)
Protocol: For (anti)proliferation assays, 4,000-5,000 cells/well of the 96-well clustered dish were incubated for 16 hours, as described previously (Hu et al., 2008; Skehan et al., 1990). After 16 hours, culture medium was replaced with fresh medium containing different dilutions of test compounds dissolved in DMSO. Some wells were treated with 100 μl of 10% trichloroacetic acid (TCA) as a negative control and sham (medium with dimethyl sulfoxide; DMSO) treated cells were used as a positive control. After 72 hours post-incubation, medium was removed and cells were fixed with 10% TCA at 4° C. for 1 hour. […] SRB stained macromolecules were determined at a 540 nm wavelength using an automated plate reader (Synergy H4 Hybrid Multi-Mode Microplate Reader, BioTek, Winooski, Vt.). Cell growth (inhibition) was calculated by the following formula: […]
wherein AT=absorbance of treated cells, CT=absorbance of negative control cells, and ST=absorbance of sham treated cells. IC50 values were calculated from sigmoidal dose-response curves generated by two independent biological replicates, with quadruplicate in each set by using Graph Pad Prism v.5.04 software. […] The combinational index (CI) was calculated as described previously (Chou 2006). […] CI values were determined from four independent experiments.

[4] = system: ANBL6-BR; experiment: Antiproliferation, bortezomib-resistant cells; settings: ANBL6-BR (bortezomib-resistant multiple myeloma)
Protocol: All of the cell lines used were purchased from ATCC and cultured in RPMI-1640 supplemented with 10% fetal bovine serum and antibiotics (100 units penicillin/100 μg/ml streptomycin), unless stated otherwise. 1845B5 and MCF-10A non-cancer breast cell lines were cultured in DME/F12 medium supplemented with 10% fetal bovine serum, antibiotics and growth factors. […] The human small cell lung carcinoma H69 cell line and its multidrug-resistant MRP1-overexpressing isogenic H69AR cell line were purchased from ATCC. […] H69 cells grow as large multi-cell aggregates, making it difficult to accurately count cell numbers. […] The IL-6 dependent bortezomib-resistant ANBL6-BR cell line was further supplemented with 1 ng/ml of IL-6. The MCF10AT1 and MCF10CA1a cell lines are isogenic to the MCF10A cell line, and obtained from Dr. Valerie Weaver at the Center for Bioengineering and Tissue Regeneration, UCSF, CA, USA. […] Cell growth (inhibition) was calculated by the following formula: % cells proliferation=[(AT-CT)/(ST-CT)]×100 wherein AT=absorbance of treated cells, CT=absorbance of negative control cells, and ST=absorbance of sham treated cells. […] The combinational index (CI) was calculated as described previously (Chou 2006). […] CI values were determined from four independent experiments.

SMILES	DNA damage (γ-H2AX) [1]	ACS (abnormal chromosome segregation) ([2]; 12 h post-treatment)	Monopolar centrosome ([2]; 12 h post-treatment)	ACS (abnormal chromosome segregation) ([2]; 24 h post-treatment)	Monopolar centrosome ([2]; 24 h post-treatment)	IC50 [3] [µM]	IC50 [4] [µM]
COc1ccccc1C(=O)/C=C/c1cc2ccccc2[nH]c1=O [CTR-17, (E)-3-(3-(2-Methoxyphenyl)-3-oxoprop-1-enyl)quinolin-2(1H)-one]	does not cause any notable DNA damage	48.2 ± 10.1% of total mitotic cells	50.5 ± 10.1% of total mitotic cells	0.1 ± 0.0% of total mitotic cells	93.2 ± 3.4% of total mitotic cells	–	–
COc1ccc2[nH]c(=O)c(/C=C/C(=O)c3ccccc3OC)cc2c1 [CTR-20, (E)-6-Methoxy-3-(3-(2-methoxyphenyl)-3-oxoprop-1-enyl) quinolin-2(1H)-one]	–	–	–	–	–	0.28 ± 0.03	0.76 ± 0.28
